Measurements from ChEMBL document CHEMBL1201862, “PubChem BioAssay data set” (2004).
“And” between values parts separate entries of the source, which are not always exact repeats. Identical values can stand only once.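 Step 1: Grow cells in 96-well plates. Step 2: Expose to compound for 48 hours at 5 concentrations. Step 3: Interpolate endpoints linearly; if unreached, use highest concentration. Abbreviation: GI50, concentration required for 50% inhibition of growth.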 The source made the active and inactive calls. No stated cut-off is given here; in the data, active = GI50 up to about 1.1 µM and inactive = higher.

Key:
Test in all cases: NCI anticancer screen, dose series, 48 h
U-251 = test system: U-251
SNB-75 = test system: SNB-75
SNB-78 = test system: SNB-78
UACC-62 = test system: UACC-62
XF498 = test system: XF498
IGROV-1 = test system: IGROV-1
OVCAR-3 = test system: OVCAR-3
HT-29 = test system: HT-29
786-0 = test system: 786-0
CCRF-CEM = test system: CCRF-CEM
KM-20L2 = test system: KM-20L2
HCT-116 = test system: HCT-116
OVCAR-5 = test system: OVCAR-5
HOP-92 = test system: HOP-92
CAKI-1 = test system: CAKI-1
RPMI-8226 = test system: RPMI-8226
SK-MEL-2 = test system: SK-MEL-2

Measured: GI50

CCOc1ccc(NC(=O)CC2SC(Nc3ccc(C)cc3)=NC2=O)cc1 (configuration not stated)
inactive: U-251 > 100 µM | SNB-75 > 100 µM | SNB-78 > 100 µM | UACC-62 > 100 µM | XF498 > 100 µM | IGROV-1 > 100 µM | OVCAR-3 > 100 µM | HT-29 > 100 µM | 786-0 > 100 µM | CCRF-CEM 29.2 µM | KM-20L2 > 100 µM | HCT-116 > 100 µM | OVCAR-5 > 100 µM

CCCN1CN(C(C(=O)N[C@@H]2C(=O)N3C2SC(C)(C)C3C(=O)O)c2ccc(O)cc2)CSC1=S (some centres not stated)
inactive: U-251 > 100 µM | SNB-75 > 100 µM | UACC-62 > 100 µM | XF498 > 100 µM | IGROV-1 > 100 µM | OVCAR-3 23.6 µM | HOP-92 > 100 µM | HT-29 > 100 µM | 786-0 > 100 µM | CCRF-CEM > 100 µM | CAKI-1 > 100 µM | RPMI-8226 62.1 µM | KM-20L2 > 100 µM | SK-MEL-2 > 100 µM | HCT-116 > 100 µM | OVCAR-5 > 100 µM

COc1c(Sc2ccccc2)cc(Sc2ccccc2)c2cccnc12
inactive: U-251 29.2 µM | SNB-75 19.5 µM | SNB-78 34 µM | UACC-62 18.2 µM | XF498 17.7 µM | IGROV-1 46.1 µM | OVCAR-3 20.9 µM | HT-29 24.9 µM | 786-0 20.2 µM | CCRF-CEM 20 µM | CAKI-1 12.9 µM | RPMI-8226 17.6 µM | KM-20L2 21.2 µM | SK-MEL-2 17.6 µM | HCT-116 28.9 µM | OVCAR-5 40.2 µM

CC(CC(=O)Nc1ccc(NC(=O)CC(C)/N=N\C(N)=O)cc1)/N=N\C(N)=O (configuration not stated)
inactive: U-251 > 100 µM | SNB-75 > 100 µM | UACC-62 > 100 µM | XF498 > 100 µM | IGROV-1 > 100 µM | OVCAR-3 > 100 µM | HOP-92 > 100 µM | HT-29 > 100 µM | 786-0 > 100 µM | CCRF-CEM > 100 µM | CAKI-1 > 100 µM | RPMI-8226 > 100 µM | KM-20L2 > 100 µM | SK-MEL-2 > 100 µM | HCT-116 > 100 µM | OVCAR-5 > 100 µM

COC1OC(COC(C)=O)C(OC(C)=O)C(OC(C)=O)C1NC(=O)N(CCCl)N=O (configuration not stated)
inactive: SNB-75 47.1 µM and 34.4 µM | SNB-78 > 100 µM | UACC-62 26.2 µM and 25.6 µM | XF498 > 100 µM | IGROV-1 > 100 µM | OVCAR-3 > 100 µM | HT-29 > 100 µM | 786-0 54.6 µM and 63.4 µM | CAKI-1 > 100 µM | KM-20L2 > 100 µM | HCT-116 > 100 µM | OVCAR-5 > 100 µM

C=C(C(=C)N1N=NC2C3CCC(C3)C21)N1N=NC2C3CCC(C3)C21 (configuration not stated)
inactive: U-251 > 100 µM | SNB-75 55.1 µM | SNB-78 > 100 µM | UACC-62 > 100 µM | XF498 > 100 µM | IGROV-1 > 100 µM | OVCAR-3 > 100 µM | HOP-92 > 100 µM | HT-29 > 100 µM | 786-0 > 100 µM | CCRF-CEM 24.9 µM | CAKI-1 > 100 µM | HCT-116 > 100 µM | OVCAR-5 > 100 µM

Nc1ccc(C(=O)/C=C/c2ccccc2O)cc1
inactive: U-251 > 100 µM | SNB-75 > 100 µM | SNB-78 > 100 µM | UACC-62 > 100 µM | XF498 > 100 µM | IGROV-1 > 100 µM | OVCAR-3 > 100 µM | HT-29 > 100 µM | 786-0 > 100 µM | CCRF-CEM > 100 µM | CAKI-1 > 100 µM | KM-20L2 > 100 µM | SK-MEL-2 > 100 µM | HCT-116 > 100 µM | OVCAR-5 > 100 µM

CC(=O)CC(=O)ON(C)C(C)=O
inactive: U-251 > 100 µM | SNB-75 > 100 µM | SNB-78 > 100 µM | UACC-62 > 100 µM | XF498 > 100 µM | IGROV-1 > 100 µM | OVCAR-3 > 100 µM | HT-29 > 100 µM | 786-0 > 100 µM | CCRF-CEM > 100 µM | CAKI-1 > 100 µM | RPMI-8226 > 100 µM | KM-20L2 > 100 µM | HCT-116 > 100 µM | OVCAR-5 > 100 µM

Cc1[nH]c2ccccc2c1C1Cc2ccccc2N1C(=O)/C=C/C=C/c1ccccc1 (configuration not stated)
inactive: U-251 > 100 µM | SNB-75 > 100 µM | SNB-78 > 100 µM | UACC-62 > 100 µM | IGROV-1 > 100 µM | OVCAR-3 13.1 µM | HOP-92 > 100 µM | HT-29 > 100 µM | 786-0 > 100 µM | CCRF-CEM 58.2 µM | CAKI-1 > 100 µM | RPMI-8226 > 100 µM | KM-20L2 > 100 µM | SK-MEL-2 > 100 µM | HCT-116 > 100 µM | OVCAR-5 > 100 µM

O=C(CC(=O)C1CCOC1=O)C(=O)Nc1ccc(Cl)cc1 (configuration not stated)
inactive: U-251 > 100 µM | SNB-75 > 100 µM | SNB-78 > 100 µM | UACC-62 > 100 µM | IGROV-1 > 100 µM | OVCAR-3 > 100 µM | HOP-92 > 100 µM | HT-29 > 100 µM | 786-0 > 100 µM | CCRF-CEM > 100 µM | CAKI-1 > 100 µM | RPMI-8226 > 100 µM | KM-20L2 > 100 µM | SK-MEL-2 > 100 µM | HCT-116 > 100 µM | OVCAR-5 > 100 µM

Cc1ccc(S(=O)(=O)c2ccccc2[N+](=O)[O-])cc1
inactive: U-251 > 100 µM | SNB-75 > 100 µM | SNB-78 > 100 µM | UACC-62 37.4 µM | XF498 > 100 µM | IGROV-1 > 100 µM | OVCAR-3 > 100 µM | HT-29 > 100 µM | 786-0 > 100 µM | CCRF-CEM > 100 µM | CAKI-1 67.5 µM | RPMI-8226 80.7 µM | KM-20L2 > 100 µM | SK-MEL-2 > 100 µM | HCT-116 66.8 µM | OVCAR-5 > 100 µM

O=C1OC(O)C(Oc2ccc(Cl)cc2)=C1Cl (configuration not stated)
inactive: U-251 > 100 µM | SNB-75 > 100 µM | SNB-78 > 100 µM | UACC-62 > 100 µM | IGROV-1 > 100 µM | OVCAR-3 > 100 µM | HOP-92 > 100 µM | HT-29 > 100 µM | 786-0 > 100 µM | CCRF-CEM > 100 µM | CAKI-1 > 100 µM | RPMI-8226 > 100 µM | KM-20L2 > 100 µM | SK-MEL-2 > 100 µM | HCT-116 > 100 µM | OVCAR-5 > 100 µM

CCCC(=O)N[C@@H](Cc1cc(I)c(O)c(I)c1)C(=O)NCCCNCCCCNCCCNC(=O)[C@@H](N)CCCN=C(N)N
inactive: U-251 > 100 µM | UACC-62 44.9 µM | XF498 > 100 µM | IGROV-1 29 µM | OVCAR-3 > 100 µM | HT-29 > 100 µM | 786-0 73.3 µM | CCRF-CEM > 100 µM | RPMI-8226 40.6 µM | KM-20L2 > 100 µM | HCT-116 67 µM
